# Results: patent publication US8575100B2, “Tc and Re labeled radioactive glycosylated octreotide derivatives” (Mallinckrodt LLC, priority 2001, dated 2013)
# How the values were obtained:
# AR42J-cells (SSTR2) [1] = assay: Externalization and recycling of radioligands in AR42J cells; assay type: cell-based, rat; conditions: for externalisation from the cell (in words): upon incubation up to 120 min; for extracellularly located radioactivity compared to the experiment without recycling: externalization experiment that allowed recycling
# Protocol: (§1) The cells were incubated with the radioligand for up to 120 min (n=3). At each time point the activity in the supernatant, the surface-bound and the internalized activity were determined and normalized to the values of TOC. Externalization and recycling was studied after an incubation time of 120 min over 2 h. Specificity of ligand binding was studied in a competition experiment with […] Sandostatin.
# (§2) Internalisation and externalisation experiments were performed using the sst2 expressing rat pancreatic tumor cell line AR42J. Free, surface bound and internalised radioactivity were determined after 10, 30, 60, 90 and 120 min. of incubation with the radioligands at 37° C. In the externalisation experiments allowing ligand recycling, the fraction of radioactivity released into the supernatant during 10, 30, 60, 90 and 120 min as well as the radioactivity remaining in the cells were determined. We also measured the activity released during 5 subsequent incubations (10, 20 and 3×30 min) with intermediate changes of the medium (limited recycling).
# As described for the internalization studies, the six-well plates were incubated at 37° C. with fresh culture medium (RPMI 1640, 1% BSA, 2 mM L-Glutamine) for 1H prior to the experiment. Then app. […] After incubating for 120 min. at 37° C., the supernatant was collected and the cells were washed once with 1 ml of cold medium. The supernatant was pooled with the supernatant of the previous step. To collect externalized radioactivity the cells were then incubated at 37° C. with 1 ml of culture medium. After 10, 30, 60, 90 and 120 minutes respectively, the supernatant was collected, the cells were washed once with 1 ml of culture medium and the supernatant was again pooled with the supernatant of the previous step. Then the cells were extracted with 1 ml of 1 N NaOH and the wells were rinsed once with PBS. This pooled fraction represents radioligand still located in the cell. The activity in the NaOH-fraction as well as in the supernatant- and in the externalisation-fractions was counted in a γ-Counter.
# As described for the previous experiment, a six-well plate was incubated for 120 min. at 37° C. with radioligand. The supernatant was collected and the cells were washed once with 1 ml of cold medium. The supernatant was pooled with the supernatant of the previous step. To collect externalized radioactivity the cells were then incubated at 37° C. with 1 ml of culture medium. After 10 min. the supernatant was collected and the cells were again incubated with 1 ml of culture medium for another 20 min. at 37° C. The supernatant was collected and the cells were three more times incubated with 1 ml of culture medium for 30 min. at 37° C. Then the cells were extracted with 1 ml of 1 N NaOH and the wells were rinsed once with PBS. This pooled fraction represents radioligand still located in the cell. The activity in the NaOH-fraction as well as in the externalisation-fractions at all time points was counted in a […].
# AR42J-cells (SSTR2) [2] = assay: Internalization of radioligands in AR42J cells; conditions: for internalised ligand / internalisation rate (% internalised ligand/% surface-bound ligand): 60 min incubation; for internalised ligand: normalized to the reference [125I]TOC; for internalisation rate (% internalised ligand/% surface-bound ligand): ratio normalized to the reference [125I]TOC
# Protocol: as §1, §2
# Coupling of glucose (Gluc) and maltotriose (Mtr) to N^α-Lys of N^ε-(Boc-His(Boc))Lys^0-Tyr^3-Lys^5(Dde)-octreotide (protected K(H)TOC) and final deprotection yielded Gluc- and Mtr-K(H)TOC. ^99mTc-labeling was carried out using [^99mTc(H2O)3(CO)3]^+. […] Biodistribution was evaluated in nude mice bearing AR42J tumors at 0.5 and 2 h p.i (n=4).
# N^ε(Boc-His(Boc))Lys^0-Tyr^3-Lys^5 (Dde)-octreotide (protected K(H)TOC) was synthesized using standard Fmoc-chemistry. […] Tc-99m-labeling was carried out using the organometallic aquaion [^99mTc (H2O)3 (CO)3]^+(1). Internalization and externalization studies (<120 min) were performed for both compounds using the SSTR2 expressing cell line AR42J. […] Biodistribution of intravenously administered [^99mTc]Gluc-K(H)TOC and [^99mTc]Mtr-K(H)TOC was evaluated in nude mice bearing AR42J rat pancreatic tumors at 30 and 120 min p.i(n=4).
# Six-well plates with a cell population of 8×10^5-5×10^6 AR42J-cells per well were incubated at 37° C. with fresh culture medium (RPMI 1640, 1% BSA, 2 mM L-glutamine) for 1 h prior to the experiment. Then app. […] After incubating for 10, 30, 60, 90 or 120 min. at 37° C. the supernatant was collected and the cells were washed once with 1 ml of cold medium. The supernatant was pooled with the supernatant of the previous step. To remove receptor bound (acid releasable) radioactivity the cells were incubated at 37° C. with 1 ml of 0.02 M NaOAc (acid wash). After 10 min. the supernatant was collected, the cells were washed once with 1 ml of 0.02 M NaOAc and the supernatant was again pooled with the supernatant of the previous step. Then the cells were extracted with 1 ml of 1 N NaOH and the wells were rinsed once with PBS. This pooled fraction represents internalized radioligand. The activity in the NaOH-fraction as well as in the supernatant- and in the acid wash-fractions was counted in a γ-Counter.
# [3] = Determination of lipophilicity (octanol/PBS); assay type: physicochemical; conditions: octanol/PBS pH 7.4; radiolabeled peptide; n=6
# Protocol: To a solution of app. 300000 cpm of radiolabeled peptide in […] of PBS (pH 7.4), […] of octanol were added (n=6). Vials were vortexed for 3 min and then centrifuged at 15000 rpm for 6 min. Aliquots of […] of PBS and octanol were measured in a γ-Counter.
substance,measurement,setting,value
Na-(1-deoxy-D-fructosyl)-Lys^0(Nε-His [^99mTc (H2O)(CO)3]+)-Tyr^3-octreotide [[^99mTc]Gluc-K^0(H)TOC],externalisation from the cell (in words),AR42J-cells (SSTR2) [1],remains trapped within the cell up to 120 min
same,externalisation from the cell (in words),AR42J-cells (SSTR2) [1]; listed as [^99mTc]Gluc-K(H)TOC,almost stable up to 2h
same,retention in the cell under recycling conditions,"AR42J-cells (SSTR2) [1]; within 120 min, recycling allowed",nearly quantitative retention
same,internalised ligand,AR42J-cells (SSTR2) [2],234 ± 24
same,internalisation rate (% internalised ligand/% surface-bound ligand),AR42J-cells (SSTR2) [2],171 ± 29
same,increase of internalisation by a factor compared to the reference [125I]TOC,"AR42J-cells (SSTR2) [2]; Example 2, time not given",2.3±0.8
same,"intracellular activity levels, times higher than [125I]TOC",AR42J-cells (SSTR2) [2]; at 2 h (120 min),2.3±0.2 times
[^125I]Tyr^3-octreotate [[^125I]TOCA],extracellularly located radioactivity compared to the experiment without recycling,AR42J-cells (SSTR2) [1]; printed as a fraction,about ⅔
same,surface availability (% surface-bound ligand/% free radioligand),AR42J-cells (SSTR2) [2],182 ± 6
same,internalised ligand,AR42J-cells (SSTR2) [2],204 ± 7
same,internalisation rate (% internalised ligand/% surface-bound ligand),AR42J-cells (SSTR2) [2],140 ± 8
same,amount of internalized ligand [% internalized TOC],"AR42J-cells (SSTR2) [2]; after 2 h of incubation, normalized to TOC",154%
same,internalization rate (internalized/surface bound act.) increase,AR42J-cells (SSTR2) [2]; compared to TOC,1.4 fold
same,surface concentration (availability on the cell surface) increased by a factor compared to TOC,AR42J-cells (SSTR2) [2]; compared to TOC,2.1
[^125I]Tyr^3-octreotide [[^125I]TOC],extracellularly located radioactivity compared to the experiment without recycling,AR42J-cells (SSTR2) [1],about 80%
same,externalisation from the cell (in words),AR42J-cells (SSTR2) [1],rapidly externalised
same,decrease of intracellular activity,AR42J-cells (SSTR2) [1]; within 2 h (120 min),about 50%
same,internalised ligand,AR42J-cells (SSTR2) [2],100
same,internalisation rate (% internalised ligand/% surface-bound ligand),AR42J-cells (SSTR2) [2],100
(1-deoxy-D-fructosyl)-Lys^0Nε-His)-Tyr^3-octreotide [S1-Lys^0(His)TOC],log Pow,[3],log Pow = −0.673 ± 0.064
